In US20080146457A1, “METHOD FOR THE DETERMINATION OF CELL ACTIVATION” (priority 2003, published 2008):

How the values were obtained:
Type in all cases: cell-based
[1] = system: JNK1/2; test: Level of phosphorylation of JNK1/2 in anisomycin-treated Jurkat cells on multiplex arrays
Experimental: (§1) Hybridization chambers were placed onto diaglass functionalized slides (EAT, Namur, Belgium) spotted with antibodies specific of the protein to be detected, in this case anti-Akt antibodies. The spotting was performed with a split pin or a pin and ring or a plain pin. Each spot contained between 0.5 and 10 nl depending on the type of pin used and its diameter.
(§2) The slides were washed 4×1 min in Washing Buffer (EAT, Namur, Belgium). The slides were then incubated for 1 h with 500 μl of a specific rabbit detection antibody against phospho-Akt diluted 500× in Blocking Buffer (EAT, Namur, Belgium). The slides were washed 4×1 min in Washing Buffer. The slides were then incubated for 45 min at room temperature with a conjugated antibody (anti-rabbit Cy3) diluted 1000× in Blocking Buffer. The slides were washed 4×1 min in Washing Buffer and then rinsed twice in water. The slides were scanned in a laser confocal scanner “ScanArray” (Packard, USA) at a resolution of 10 μm.
(§3) The assay was performed as described in Example 1, but two identical arrays were present on each slide. The capture antibodies spotted on the left and right arrays were the same, but the detection antibodies were either specific to the phospho-Akt (right arrays) or to the total Akt (left arrays). Four different mixes were prepared as follows: (1) 40 ng of purified Akt and 40 ng of purified phospho Akt; (2) 40 ng of purified Akt and 20 ng of purified phospho Akt; (3) 40 ng of purified Akt and 10 ng of purified phospho Akt; (4) 40 ng of purified Akt and 5 ng of purified phospho Akt. In this experiment, four slides were used. […] The intensity of the spots on each array was then quantified and the results clearly show decreasing signal intensities correlating with decreasing concentrations of phospho-Akt on the right arrays. The calculated ratios of phospho vs. total Akt directly relates to the known concentration used in the four different mixes.
(§4) Each slide contained 2 identical arrays. The two arrays were incubated with the same samples possibly containing the proteins to be detected. The left array was then incubated with a mixture of 7 detection antibodies directed against the 7 proteins to be detected. The right array was incubated with a mixture of 7 detection antibodies directed against the phospho-specific form of the 7 proteins to be detected. […] The samples consisted of each of the 7 proteins to be detected, in their non-phosphorylated or phosphorylated form, or combinations thereof.
(§5) The experiment was performed on slides containing a double array as presented in Example 4. […] The protein chips allowed to simultaneously quantify the level of phosphorylation of p38 and JNK1/2 due to the effect of anisomycin on cells.

[2] = system: p38; test: Level of phosphorylation of p38 in anisomycin-treated Jurkat cells on multiplex arrays
Experimental: as §1, §2, §3, §4, §5

[3] = system: Erk1/2; test: Phosphorylation status of Erk1/2 in PMA-treated Jurkat cells on double antibody array; details: PMA 0.1 to 1000 ng/ml, 10 minutes
[4] = 8 different concentrations of anisomycin

SMILES	level of phospho form of JNK1/2 [1, 4]	level of total JNK1/2 [1, 4]	ratio of Phospho vs. total forms of JNK1/2 ([1]; anisomycin 0.01 μM)	ratio of Phospho vs. total forms of JNK1/2 ([1]; anisomycin 1 μM)	level of phospho form of p38 [2, 4]	level of total p38 [2, 4]	ratio of Phospho vs. total forms of p38 ([2]; anisomycin 1 μM)	ratio of Phospho vs. total forms of p38 ([2]; anisomycin 100 μM)	amount of Erk1/2 (total protein) [3]	levels of phosphorylation at threonine 185 and tyrosine 187 of Erk1/2 [3]
COc1ccc(C[C@H]2NC[C@H](O)[C@H]2OC(C)=O)cc1 [anisomycin]	increase with the anisomycin concentration	remain constant	0.33	0.88	increase with the anisomycin concentration	remain constant	0.33	1.0		
CCCCCCCCCCCCCC(=O)O[C@@H]1[C@@H](C)[C@@]2(O)[C@@H](C=C(CO)C[C@]3(O)C(=O)C(C)=C[C@@H]23)[C@@H]2C(C)(C)[C@]12OC(C)=O [PMA, phorbol 12-myristate 13-acetate]									remains constant	increase with the amount of PMA
